Counter-ions that a name gives are not always drawn.

In data set [1] the test system is tumor necrosis factor (α). The experiment in a line: Cytokine Induction in Human Cells: tumor necrosis factor (α) by ELISA or IGEN Assay. The class given is cell-based. The arrangement: key to Lowest Effective Concentration Tumor Necrosis Factor: A “*” indicates that no induction was seen at any of the tested concentrations. The note with it: human PBMC, 18 to 24 hours incubation, compounds generally tested at 30-0.014 μM; for minimal effective concentration: read-out: Lowest Effective Concentration Tumor Necrosis Factor. An excerpt:
(§1) An in vitro human blood cell system is used to assess cytokine induction. Activity is based on the measurement of interferon and tumor necrosis factor (α) (IFN and TNF, respectively) secreted into culture media as described by Testerman et. al. In “Cytokine Induction by the Immunomodulators Imiquimod and S-27609”, Journal of Leukocyte Biology, 58, 365-372 (September, 1995).
(§2) Whole blood from healthy human donors is collected by venipuncture into EDTA vacutainer tubes. Peripheral blood mononuclear cells (PBMC) are separated from whole blood by density gradient centrifugation using Histopaque®-1077. Blood is diluted 1:1 with Dulbecco's Phosphate Buffered Saline (DPBS) or Hank's Balanced Salts Solution (HBSS). The PBMC layer is collected and washed twice with DPBS or HBSS and resuspended at 4×10^6 cells/mL in RPMI complete. The PBMC suspension is added to 48 well flat bottom sterile tissue culture plates (Costar, Cambridge, Mass. or Becton Dickinson Labware, Lincoln Park, N.J.) containing an equal volume of RPMI complete media containing test compound.
(§3) The compounds are solubilized in dimethyl sulfoxide (DMSO). The DMSO concentration should not exceed a final concentration of 1% for addition to the culture wells. The compounds are generally tested at concentrations ranging from 30-0.014 μM.
(§4) The solution of test compound is added at 60 μM to the first well containing RPMI complete and serial 3 fold dilutions are made in the wells. The PBMC suspension is then added to the wells in an equal volume, bringing the test compound concentrations to the desired range (30-0.014 μM). The final concentration of PBMC suspension is 2×10^6 cells/mL. The plates are covered with sterile plastic lids, mixed gently and then incubated for 18 to 24 hours at 37° C. in a 5% carbon dioxide atmosphere.
(§5) Following incubation the plates are centrifuged for 10 minutes at 1000 rpm (˜200×g) at 4° C. The cell-free culture supernatant is removed with a sterile polypropylene pipet and transferred to sterile polypropylene tubes. Samples are maintained at −30 to −70° C. until analysis. The samples are analyzed for interferon (α) by ELISA and for tumor necrosis factor (α) by ELISA or IGEN Assay
Tumor necrosis factor (α) (TNF) concentration is determined using ELISA kits available from Biosource International, Camarillo, Calif. Alternately, the TNF concentration can be determined by Origen® M-Series Immunoassay and read on an IGEN M-8 analyzer from IGEN International, Gaithersburg, Md. The immunoassay uses a human TNF capture and detection antibody pair from Biosource International, Camarillo, Calif. Results are expressed in pg/mL.
(§6) The table below lists the lowest concentration found to induce interferon and the lowest concentration found to induce tumor necrosis factor for each compound.

The subject of another data set is interferon (α). The experiment in a line: Cytokine Induction in Human Cells: interferon (α) by ELISA. It is filed as cell-based. Also noted: key to Lowest Effective Concentration Interferon: A “*” indicates that no induction was seen at any of the tested concentrations. Particulars: human PBMC, 18 to 24 hours incubation, compounds generally tested at 30-0.014 μM; for minimal effective concentration: read-out: Lowest Effective Concentration Interferon.
Description: as §1, §2, §3, §4, §5
Interferon (α) concentration is determined by ELISA using a Human Multi-Species kit from PBL Biomedical Laboratories, New Brunswick, N.J. Results are expressed in pg/mL.
as §6

Take `CCOCc1nc2c(N)nc(C)cc2n1CCCCNC(=O)N1CCOCC1` (as salt: salt) [Example 10, N-{4-[4-amino-2-(ethoxymethyl)-6-methyl-1H-imidazo[4,5-c]pyridin-1-yl]butyl}morpholin-4-ylcarboxamide]: the melting point is 156.5 to 159.5 °C. On to `CCCCc1nc2c(N)nc(C)c(C)c2n1CCCCNC(=S)Nc1ccccc1` (hydrate or solvate) [Example 5, N-[4-(4-Amino-2-butyl-6,7-dimethyl-1H-imidazo[4,5-c]pyridin-1-yl)butyl]-N′-phenylthiourea Hydrate], for which the melting point was 160 to 160.8 °C. The compound `CCOCc1nc2c(N)nc(C)c(C)c2n1CCC1CCN(C(=O)N2CCOCC2)CC1` [Example 12, 2-(ethoxymethyl)-6,7-dimethyl-1-{2-[1-(morpholin-4-ylcarbonyl)piperidin-4-yl]ethyl}-1H-imidazo[4,5-c]pyridin-4-amine] came in with a melting point of 158.1 to 160.5 °C. On to `CCOCc1nc2c(N)nc(C)cc2n1CCCCNC(=O)NS(=O)(=O)c1ccc(C)cc1` [Example 48], for which the “Lowest Effective Concentration Tumor Necrosis Factor” value in data set [1] was “*”. For the same compound, in the data set with interferon (α), the “Lowest Effective Concentration Interferon” value is given as “*”. For the compound `CCCCc1nc2c(N)nc(C)c(C)c2n1CCCCNC(=S)Nc1ccccc1` [Example 5, N-[4-(4-Amino-2-butyl-6,7-dimethyl-1H-imidazo[4,5-c]pyridin-1-yl)butyl]-N′-phenylthiourea Hydrate], the minimal effective concentration came to 0.12 µM in data set [1] and 0.01 µM with interferon (α). `Cc1nc(N)c2nc(C)n(CCNC(=O)N3CCOCC3)c2c1C` [Example 15, N-[2-(4-amino-2,6,7-trimethyl-1H-imidazo[4,5-c]pyridin-1-yl)ethyl]morpholin-4-ylcarboxamide] displayed a melting point of 219 to 221 °C. As for `CC(=O)c1cccc(NC(=O)NCCCCn2cnc3c(N)nc(C)c(C)c32)c1` [Example 23], in data set [1], the “Lowest Effective Concentration Tumor Necrosis Factor” value is on record as “*”. The “Lowest Effective Concentration Interferon” value in the data set on interferon (α) is “*”. For the compound `CCOCc1nc2c(N)nc(C)c(C)c2n1CCC1CCN(C(=S)NC(=O)c2ccco2)CC1` [Example 74, N-[(4-{2-[4-amino-2-(ethoxymethyl)-6,7-dimethyl-1H-imidazo[4,5-c]pyridin-1-yl]ethyl}piperidin-1-yl)carbonothioyl]-2-furamide], the minimal effective concentration in data set [1] stood at 1.11 µM; with interferon (α) it was 0.37 µM.

`Cc1nc(N)c2ncn(CCCCNC(=O)N[C@@H]3C[C@H]3c3ccccc3)c2c1C` (relative stereo) [Example 28, N-[4-(4-amino-6,7-dimethyl-1H-imidazo[4,5-c]pyridin-1-yl)butyl]-N′-[(1R*,2S*)-2-phenylcyclopropyl]urea]: the “Lowest Effective Concentration Tumor Necrosis Factor” value in data set [1] is “*”. For the same compound, in the data set on interferon (α), the “Lowest Effective Concentration Interferon” value was “*”.

Take `CCOCc1nc2c(N)nc(C)cc2n1CCCCNC(=S)NC(=O)c1ccco1` [Example 53, N-{4-[4-amino-2-(ethoxymethyl)-6-methyl-1H-imidazo[4,5-c]pyridin-1-yl]butyl}-N′-(2-furoyl)thiourea]: the figures for the minimal effective concentration (in data set [1]; with interferon (α)) were 3.33 µM and 0.37 µM, respectively. With `CCOCc1nc2c(N)nc(C)cc2n1CCCCNC(=O)NC(C)C` [Example 36], the minimal effective concentration in data set [1] is 30 µM; in the data set on interferon (α) it was 1.11 µM.

On to `CCCCc1nc2c(N)nc(C)c(C)c2n1CCCCNC(=O)c1ccccc1` [Example 1, N-[4-(4-Amino-2-butyl-6,7-dimethyl-1H-imidazo[4,5-c]pyridin-1-yl)butyl]benzamide], for which the results for the minimal effective concentration (in data set [1]; in the data set on interferon (α)) were 1.11 µM and 0.12 µM, respectively. On to `Cc1nc(N)c2ncn(CCCCNC(=O)Nc3cccc(C#N)c3)c2c1C` [Example 21], for which the “Lowest Effective Concentration Tumor Necrosis Factor” value in data set [1] is “*”. Further, the “Lowest Effective Concentration Interferon” value in the data set on interferon (α) was “*”. As to `CCOCc1nc2c(N)nc(C)cc2n1CCCCNC(=S)Nc1ccc(OC)cc1` [Example 52], the results for the minimal effective concentration (in data set [1]; in the data set with interferon (α)) were 3.33 µM and 0.37 µM, respectively. As to `CCOCc1nc2c(N)nc(C)c(C)c2n1CCC1CCN(C(=O)NCC(=O)OCC)CC1` [Example 59], the minimal effective concentration was determined as 10 µM in data set [1] and 1.11 µM in the data set on interferon (α). Consider `CCOCc1nc2c(N)nc(C)cc2n1CCCCNC(=O)Nc1cccc(C(C)=O)c1` [Example 42], for which the minimal effective concentration (in data set [1]; in the data set with interferon (α)) was 10 µM throughout.

With `Cc1nc(N)c2ncn(CCCCNC(=O)Nc3ccccc3)c2c1C` [Example 19], the minimal effective concentration in data set [1] turned out to be 30 µM; in the data set with interferon (α), 10 µM. Turning to `Cc1nc(N)c2ncn(CCCCNC(=S)NCCc3ccccc3)c2c1C` [Example 34], in data set [1], the “Lowest Effective Concentration Tumor Necrosis Factor” value was “*”. Further, in the data set with interferon (α), the “Lowest Effective Concentration Interferon” value is recorded as “*”. For `Cc1nc(N)c2ncn(CCCCNC(=O)N3CCOCC3)c2c1C` [Example 27, N-[4-(4-amino-6,7-dimethyl-1H-imidazo[4,5-c]pyridin-1-yl)butyl]morpholin-4-ylcarboxamide], in data set [1], the “Lowest Effective Concentration Tumor Necrosis Factor” value is listed as “*”. Besides, in the data set on interferon (α), the “Lowest Effective Concentration Interferon” value was “*”.

For the compound `COc1cccc(NC(=O)NCCCCn2cnc3c(N)nc(C)c(C)c32)c1` [Example 22], in data set [1], the “Lowest Effective Concentration Tumor Necrosis Factor” value is recorded as “*”. Also, the “Lowest Effective Concentration Interferon” value in the data set with interferon (α) is “*”. Regarding `CCOCc1nc2c(N)nc(C)cc2n1CCCCNC(=O)Nc1ccc(N(C)C)cc1` [Example 43], the minimal effective concentration worked out at 10 µM in data set [1] and 0.041 µM in the data set with interferon (α). With `Cc1nc(N)c2ncn(CCCCNC(=O)NC(C)C)c2c1C` [Example 16], the “Lowest Effective Concentration Tumor Necrosis Factor” value in data set [1] is recorded as “*”. Further, the “Lowest Effective Concentration Interferon” value in the data set on interferon (α) is reported as “*”. As for `CCOCc1nc2c(N)nc(C)c(C)c2n1CCC1CCN(C(=O)Nc2ccccc2)CC1` [Example 57], the minimal effective concentration in data set [1] was found to be 1.11 µM; in the data set on interferon (α), 0.37 µM. In the case of `CCOCc1nc2c(N)nc(C)cc2n1CCCCNC(=O)Nc1cccc(SC)c1` [Example 44], the minimal effective concentration in data set [1] was 10 µM; with interferon (α), 3.33 µM. Take `CCOCc1nc2c(N)nc(C)cc2n1CCCCNC(=O)NS(=O)(=O)c1ccccc1` [Example 47]: in data set [1], the “Lowest Effective Concentration Tumor Necrosis Factor” value is “*”. The “Lowest Effective Concentration Interferon” value with interferon (α) is given as “*”.

On to `COc1ccc(NC(=O)NCCCCn2cnc3c(N)nc(C)c(C)c32)c(OC)c1` [Example 26], for which the minimal effective concentration (in data set [1]; with interferon (α)) was 30 µM throughout. As to `CCOCc1nc2c(N)nc(C)c(C)c2n1CCC1CCN(C(=S)Nc2ccccc2)CC1` [Example 71], the minimal effective concentration in data set [1] came out at 3.33 µM; with interferon (α) it was 0.37 µM. For `CCOCc1nc2c(N)nc(C)cc2n1CCCCNC(=S)NCCc1ccccc1` [Example 51], the minimal effective concentration turned out to be 10 µM in data set [1] and 3.33 µM in the data set with interferon (α). In the case of `CCOCc1nc2c(N)nc(C)c(C)c2n1CCC1CCN(C(=O)NS(=O)(=O)c2ccc(Cl)cc2)CC1` [Example 70], in data set [1], the “Lowest Effective Concentration Tumor Necrosis Factor” value is on record as “*”. In addition, the minimal effective concentration in the data set on interferon (α) was 10 µM.

As to `Cc1nc(N)c2ncn(CCCCNC(=O)Nc3ccc(N(C)C)cc3)c2c1C` [Example 24], the minimal effective concentration is 30 µM in data set [1] and 10 µM in the data set with interferon (α).

The record behind these values is patent US6903113B2, “Urea substituted imidazopyridines” (3M Innovative Properties Company, priority 2000, dated 2005).
